Here are results for 6 compounds from ChEMBL document CHEMBL1159291, “Bioactive Constituents from the Flower Buds and Peduncles of Lindera megaphylla” (J Nat Prod, 1995).

Series [1] has as its system Aorta. Briefly: Inhibition of KCl-induced contraction in Wistar rat aorta assessed as contraction at 120 uM preincubated 15 mins before addition of KCl relative to control. It is filed as functional. Set-up: scale not given: the % may be the effect or the level left.
For series [2], the system named is Aorta. Briefly: Inhibition of norepinephrine-induced contraction in Wistar rat aorta assessed as contraction at 120 uM preincubated 15 mins before addition of norepinephrine relative to control. The class given is functional. Set-up: scale not given: the % may be the effect or the level left.
A short description of series [3]: Induction of rabbit platelet aggregation at 300 uM by turbidimetric method. The class given is cell-based, Oryctolagus cuniculus.
In series [4] the test system is Platelet. Briefly: Inhibition of arachidonic acid-induced rabbit platelet aggregation assessed as aggregation at 50 uM by turbidimetric method. Set-up: scale not given: the % may be the effect or the level left. It is filed as functional, Oryctolagus cuniculus.
Series [5] deals with Platelet. Briefly: Inhibition of collagen-induced rabbit platelet aggregation assessed as aggregation at 50 uM by turbidimetric method. The class given is functional, Oryctolagus cuniculus. Further details: scale not given: the % may be the effect or the level left; call rule not given here.
Series [6] relates to Aorta. The series is described as follows: Inhibition of norepinephrine-induced contraction in Wistar rat aorta assessed as contraction at 1 uM preincubated 15 mins before addition of norepinephrine relative to control. It is filed as functional. Further details: scale not given: the % may be the effect or the level left.
Series [7] has as its system Aorta. The series is described as follows: Inhibition of KCl-induced contraction in Wistar rat aorta assessed as contraction at 1 uM preincubated 15 mins before addition of KCl relative to control. The class given is functional. Set-up: scale not given: the % may be the effect or the level left.
Series [8] has as its system Aorta. The series is described as follows: Inhibition of KCl-induced contraction in Wistar rat aorta assessed as contraction at 60 uM preincubated 15 mins before addition of KCl relative to control. It is filed as functional. Further details: scale not given: the % may be the effect or the level left.
Series [9] relates to Platelet. The series is described as follows: Inhibition of collagen-induced rabbit platelet aggregation assessed as aggregation at 300 uM preincubated 3 mins before collagen challenge by turbidimetric method. The class given is functional, Oryctolagus cuniculus. Set-up: scale not given: the % may be the effect or the level left.
Series [10] has as its system Platelet. Briefly: Inhibition of arachidonic acid-induced rabbit platelet aggregation assessed as aggregation at 300 uM preincubated 3 mins before arachidonic acid challenge by turbidimetric method. Further details: scale not given: the % may be the effect or the level left. It is filed as functional, Oryctolagus cuniculus.
The subject of series [11] is Aorta. Briefly: Inhibition of norepinephrine-induced contraction in Wistar rat aorta assessed as contraction at 60 uM preincubated 15 mins before addition of norepinephrine relative to control. It is filed as functional. Set-up: scale not given: the % may be the effect or the level left.
For series [12], the system named is Aorta. The series is described as follows: Inhibition of KCl-induced contraction in Wistar rat aorta assessed as contraction at 9 uM preincubated 15 mins before addition of KCl relative to control. It is filed as functional. Set-up: scale not given: the % may be the effect or the level left.
Series [13] deals with Aorta. The series is described as follows: Inhibition of norepinephrine-induced contraction in Wistar rat aorta assessed as contraction at 9 uM preincubated 15 mins before addition of norepinephrine relative to control. The class given is functional. Set-up: scale not given: the % may be the effect or the level left.

For the compound `COc1cc2c(cc1OC)-c1c3c(cc4ccnc(c14)C2=O)OCO3` [DICENTRINONE], the figures for the Activity (in the series on Aorta [1]; in the series on Aorta [2]; in [3]) were 102.1%, 112.4% and “Not Active”, respectively.

On to `COc1cc2cc3c4c(cc5c(c4c2cc1OC)OCO5)CCN3C` [DEHYDRODICENTRINE], for which the Activity is on record as 108% with Aorta [1], 95.5% with Aorta [2] and “Not Active” in series [3].

For `CC(=O)Oc1ccccc1C(=O)O` [ASPIRIN], the Activity turned out to be 0% in the series on Platelet [4] and 85.4% with Platelet [5].

On to `COC(=O)C1=C(C)NC(C)=C(C(=O)OC)C1c1ccccc1[N+](=O)[O-]` [NIFEDIPINE], for which the Activity amounted to 96.5% in the series on Aorta [6] and 0% in the series with Aorta [7].

Turning to `COc1ccc2c(c1OC)-c1c3c(cc4c1[C@H](C2)N(C)CC4)OCO3`, the Activity stood at 88.5% in the series with Aorta [8]; 60.8% in the series on Platelet [9]; 55.2% in the series on Aorta [1]; 73% in the series with Platelet [10]; 22.9% in the series on Aorta [2]; 68.1% with Aorta [11].

In the case of `COc1cc2c(cc1OC)-c1c3c(cc4c1[C@H](C2)N(C)CC4)OCO3` [DICENTRINE], the Activity with Platelet [9] is on record as 3.1%; with Platelet [10], 0%; with Aorta [12], 77.5%; with Aorta [13], 22.5%.
